Patent US9981928B2, “Aryl sulfide derivatives and aryl sulfoxide derivatives as acaricides and insecticides” (BAYER CROPSCIENCE AKTIENGESELLSCHAFT, priority 2013, dated 2018)
Read-outs that look alike come from different tables or passages of the source.

Columns and labels:
[1] = tested on: greenhouse red spider mite (Tetranychus urticae); assay: Tetranychus urticae spray test, OP-resistant (TETRUR), bean leaf disks; format: in vivo; details: bean leaf disks, application rate 500 g/ha, after 6 days; for pest or weed control at 500 g/ha: Tetranychus urticae, foliar, 144 h, read-out: efficacy in %
Procedure: Tetranychus urticae—Spray Test, OP-Resistant (TETRUR)
Solvent: 78.0 parts by weight of acetone
• 1.5 parts by weight of dimethylformamide Emulsifier: alkylaryl polyglycol ether
To produce a suitable preparation of active compound, 1 part by weight of active compound is dissolved using the stated parts by weight of solvent and made up with water containing an emulsifier concentration of 1000 ppm until the desired concentration is attained. To produce further test concentrations, the preparation is diluted with emulsifier-containing water.
disks of bean leaves (Phaseolus vulgaris) infested with all stages of the greenhouse red spider mite (Tetranychus urticae) are sprayed with an active compound preparation of the desired concentration.
After 6 days, the efficacy in % is determined. 100% means that all the spider mites have been killed; 0% means that none of the spider mites have been killed.

[2] = log P determination by HPLC on reversed-phase columns (C 18), analogously to OECD Guideline 117; format: physicochemical; details: for logP (HCOOH): LC-MS in the acidic range, pH 2.7, 0.1% aqueous formic acid / acetonitrile; for logP (HCOOH) / logP (neutral): HPLC reversed-phase C 18; for logP (neutral): LC-MS in the neutral range, pH 7.8, 0.001 molar aqueous ammonium hydrogencarbonate / acetonitrile
Procedure: The log P values were determined analogously to OECD Guideline 117 (EC Directive 92/69/EEC) by HPLC (high-performance liquid chromatography) using reversed-phase columns (C 18), by the following methods:
[a] The LC-MS determination in the acidic range was effected at pH 2.7 with 0.1% aqueous formic acid and acetonitrile (contains 0.1% formic acid) as eluents; linear gradient from 10% acetonitrile to 95% acetonitrile. log P^[a] is also referred to as log P(HCOOH). [b] LC-MS determination in the neutral range was effected at pH 7.8 with 0.001 molar aqueous ammonium hydrogencarbonate solution and acetonitrile as eluents; linear gradient from 10% acetonitrile to 95% acetonitrile. log P^[…] is also referred to as log P(neutral).

[3] = reversed-phase C18 HPLC column, acidic range, pH 2.7, 0.1% aqueous formic acid and acetonitrile, read-out: log P[a] / log P(HCOOH)
[4] = reversed-phase C18 HPLC column, neutral range, pH 7.8, 0.001 molar aqueous ammonium hydrogencarbonate and acetonitrile, read-out: log P[b] / log P(neutral)
[5] = acidic range, pH 2.7, 0.1% aqueous formic acid and acetonitrile, read-out: log P[a] / log P(HCOOH)

SMILES	logP (HCOOH) [2]	logP (neutral) [2]	chromatographic logP [2, 3]	other results
CCn1c(=O)n(CC(F)(F)F)n(-c2cc(SCC(F)(F)F)c(C)cc2F)c1=O [Example 145]	3.54	3.49		efficacy in % [1]: 100%
CCCCN1CC(=O)N(c2cc([S+]([O-])CC(F)(F)F)c(C)cc2F)C1=O (centres unmarked) [Example 203]	2.47	2.43		efficacy in % [1]: 90%
Cc1cc(F)c(-n2c(=O)n(C(C)C)c(=O)n2C)cc1[S+]([O-])CC(F)(F)F (centres unmarked) [Example 92]	2.27	2.22		efficacy in % [1]: 100%
Cc1cc(C)c([S+]([O-])CC(F)(F)F)cc1N1C(=O)C(=O)N(CC(F)F)C1=O (centres unmarked) [Example 184]	2.44			efficacy in % [1]: 100%
Cc1cc(F)c(N2CCCC2=NCC(F)(F)F)cc1SCC(F)(F)F [Example 6, 2,2,2-Trifluoro-N-(1-[2-fluoro-4-methyl-5-[(2,2,2-trifluoroethyl)sulfanyl]phenyl]pyrrolidin-2-ylidene)ethanamine]			1.68	pest or weed control at 500 g/ha [1]: 90%; chromatographic logP [2, 4]: 4.24
C=CCn1c(=O)n(CC(F)(F)F)n(-c2cc(SCC(F)(F)F)c(C)cc2F)c1=O [Example 154]	3.62	3.64		efficacy in % [1]: 100%
Cc1cc(F)c(-n2c(=O)n(C3CC3)c(=O)n2CC(F)(F)F)cc1SCC(F)(F)F [Example 129]	3.48	3.43		efficacy in % [1]: 100%
Cc1ccc(-n2c(=O)n(C(C)C)c(=O)n2C)cc1SCC(F)(F)F [Example 132]	3.42	3.38		efficacy in % [1]: 100%
CCn1c(=O)n(C)n(-c2ccc(C)c(SCC(F)(F)F)c2)c1=O [Example 131]	3.00	2.97		efficacy in % [1]: 90%
Cc1cc(F)c(-n2c(=O)n(C(C)C)c(=O)n2C(C)(C)C)cc1SCC(F)(F)F [Example 143]		4.56		efficacy in % [1]: 100%
Cc1cc(F)c(N2CCOC2=O)cc1[S+]([O-])CC(F)(F)F (centres unmarked) [Example 105, 3-[2-Fluoro-4-methyl-5-(2,2,2-trifluoroethylsulfinyl)phenyl]oxazolidin-2-one]			1.64	pest or weed control at 500 g/ha [1]: 90%
COc1ccc(B2OC(C)(C)C(C)(C)O2)cc1SCC(F)(F)F [2-{4-Methoxy-3-[(2,2,2-trifluoroethyl)sulfanyl]phenyl}-4,4,5,5-tetramethyl-1,3,2-dioxaborolane]			4.54	chromatographic logP [2, 4]: 4.46
Cc1cc(F)c(-n2c(=O)n(C(C)C)c(=O)n2CC(F)(F)F)cc1[S+]([O-])CC(F)(F)F (racemic) [Example 153]	2.95	3.04		
CC(C)n1[nH]c(=O)n(C2CC2)c1=O [drawing 120 R1=CH(CH3)2 R10=cyclopropyl, 4-cyclopropyl-1-isopropyl-1,2,4-triazolidine-3,5-dione]			0.5	
Cc1cc(F)c(-n2c(=O)n(C(C)C)c(=O)n2CC(F)(F)F)cc1SCC(F)(F)F [Example 146]	3.85	3.90		
FC(F)(F)CSc1cc(Br)ccc1Br [VIIa-13, 1,4-Dibromo-2-[(2,2,2-trifluoroethyl)sulfanyl]benzene]			4.29	chromatographic logP [2, 4]: 4.25
Cn1[nH]c(=O)n(C(C)(C)C)c1=O [drawing 120 R1=CH3 R10=C(CH3)3, 4-tert-butyl-1-methyl-1,2,4-triazolidine-3,5-dione]			0.83	
COc1ccc(B(O)O)cc1[S+]([O-])CC(F)(F)F (centres unmarked) [VIIIb-8]			1.36	chromatographic logP [2, 4]: 1.37
CCn1c(=O)n(-c2cc([S+]([O-])CC(F)(F)F)c(C)cc2F)c(=O)n1CC (centres unmarked) [Example 119, 1,2-Diethyl-4-{2-fluoro-4-methyl-5-[(2,2,2-trifluoroethyl)sulfinyl]phenyl}-1,2,4-triazolidine-3,5-dione]			2.07	
CC(C)n1c(=O)[nH]n(C)c1=O [drawing 120 R1=CH3 R10=CH(CH3)2, 4-isopropyl-1-methyl-1,2,4-triazolidine-3,5-dione]			0.27	

SMILES	logP (HCOOH) [2]	logP (neutral) [2]	chromatographic logP [2, 3]	other results
Fc1cc(Cl)c(SCC(F)(F)F)cc1Br [VIIa-2, 1-Bromo-4-chloro-2-fluoro-5-[(2,2,2-trifluoroethyl)sulfanyl]benzene]			4.28	chromatographic logP [2, 4]: 4.29
Cn1[nH]c(=O)n(-c2cccc(C(F)(F)F)c2)c1=O [1-methyl-4-[3-(trifluoromethyl)phenyl]-1,2,4-triazolidine-3,5-dione]			1.53	
Cc1cc(F)c(-n2c(=O)n(C(C)C)c(=O)n2C(C)(C)C)cc1[S+]([O-])CC(F)(F)F (racemic) [Example 152]	3.40	3.35		
Cc1cc(F)c(NC(=O)OCCCl)cc1SCC(F)(F)F [2-Chloroethyl N-[2-fluoro-4-methyl-5-(2,2,2-trifluoroethylsulfanyl)phenyl]carbamate]				chromatographic logP [2, 5]: 3.45
CCn1c(=O)n(CC)n(-c2ccc(C)c(SCC(F)(F)F)c2)c1=O [Example 100, 1,4-Diethyl-2-{4-methyl-3-[(2,2,2-trifluoroethyl)sulfanyl]phenyl}-1,2,4-triazolidine-3,5-dione]			3.32	chromatographic logP [2, 4]: 3.29
CC(C)n1[nH]c(=O)n(C)c1=O [drawing 120 R1=CH(CH3)2 R10=CH3, 1-isopropyl-4-methyl-1,2,4-triazolidine-3,5-dione]			0.12	
[O-][S+](CC(F)(F)F)c1cc(B(O)O)c(Cl)cc1Cl (centres unmarked) [VIIIb-6, {2,4-Dichloro-5-[(2,2,2-trifluoroethyl)sulfinyl]phenyl}boronic acid]			1.86	chromatographic logP [2, 4]: 1.51
CCn1c(=O)n(C(C)C)c(=O)n1-c1cc([S+]([O-])CC(F)(F)F)c(C)cc1F (centres unmarked) [Example 93]	2.58	2.54		
Cc1cc(F)c(-n2c(=O)[nH][nH]c2=O)cc1SCC(F)(F)F [4-{2-Fluoro-4-methyl-5-[(2,2,2-trifluoroethyl)sulfanyl]phenyl}-1,2,4-triazolidine-3,5-dione]			1.82	
CCOC(=O)NNC(=O)Nc1cc(SCC(F)(F)F)c(C)cc1F [Ethyl 2-({2-fluoro-4-methyl-5-[(2,2,2-trifluoroethyl)sulfanyl]phenyl}carbamoyl)hydrazinecarboxylate]				chromatographic logP [2, 5]: 2.41
Cc1cc(F)c(N2C(=O)C(=O)N(CC(F)F)C2=O)cc1[S+]([O-])CC(F)(F)F (centres unmarked) [Example 103, 1-(2,2-Difluoroethyl)-3-{2-fluoro-4-methyl-5-[(2,2,2-trifluoroethyl)sulfinyl]phenyl}imidazolidine-2,4,5-trione]			2.32	chromatographic logP [2, 4]: 0.87
Cc1cc(F)c(-n2c(=O)n(C(C)C)c(=O)n2CC(C)C)cc1SCC(F)(F)F [Example 149]	4.27	4.21		
Cc1cc(F)c(-n2c(=O)[nH]n(C)c2=O)cc1SCC(F)(F)F [4-[2-Fluoro-4-methyl-5-[(2,2,2-trifluoroethyl)sulfanyl]phenyl]-1-methyl-1,2,4-triazolidine-3,5-dione]			2.02	
Cc1cc(F)c(N2C(=O)N(C)C(=O)C2(C)C)cc1[S+]([O-])CC(F)(F)F (centres unmarked) [Example 216, 1-[2-Fluoro-4-methyl-5-(2,2,2-trifluoroethylsulfinyl)phenyl]-3,5,5-trimethylimidazolidine-2,4-dione]			2.05	
CCn1[nH]c(=O)n(CC)c1=O [1,4-Diethyl-1,2,4-triazolidine-3,5-dione]			0.14	
C=CCOc1n[nH]c(=O)n1C1CC1 [drawing 121 R1=CH2CH═CH2 R10=cyclopropyl, 5-(allyloxy)-4-cyclopropyl-2,4-dihydro-3H-1,2,4-triazol-3-one]			1	chromatographic logP [2, 4]: 1.03
Cc1cc(F)c(-n2c(=O)n(C(C)(C)C)c(=O)n2C)cc1[S+]([O-])CC(F)(F)F (centres unmarked) [Example 95]	2.69	2.65		
Cc1cc(F)c(-n2[nH]c(=O)n(-c3cccc(C(F)(F)F)c3)c2=O)cc1[S+]([O-])CC(F)(F)F (racemic) [Example 158]	2.69	1.10		
CC1(C)OB(c2cc(SCC(F)(F)F)c(Cl)cc2Cl)OC1(C)C [2-{2,4-Dichloro-5-[(2,2,2-trifluoroethyl)sulfanyl]phenyl}-4,4,5,5-tetramethyl-1,3,2-dioxaborolane]			5.68	chromatographic logP [2, 4]: 5.31
